Assay results taken from US5132216A, “Microbial transformation process for antihypertensive products” (Merck & Co., Inc., priority 1991, dated 1992).

Molecular target: T1, Angiotensin II (A II) receptor (Oryctolagus cuniculus, UniProt P34976)
T1 sequence (P34976 1-359): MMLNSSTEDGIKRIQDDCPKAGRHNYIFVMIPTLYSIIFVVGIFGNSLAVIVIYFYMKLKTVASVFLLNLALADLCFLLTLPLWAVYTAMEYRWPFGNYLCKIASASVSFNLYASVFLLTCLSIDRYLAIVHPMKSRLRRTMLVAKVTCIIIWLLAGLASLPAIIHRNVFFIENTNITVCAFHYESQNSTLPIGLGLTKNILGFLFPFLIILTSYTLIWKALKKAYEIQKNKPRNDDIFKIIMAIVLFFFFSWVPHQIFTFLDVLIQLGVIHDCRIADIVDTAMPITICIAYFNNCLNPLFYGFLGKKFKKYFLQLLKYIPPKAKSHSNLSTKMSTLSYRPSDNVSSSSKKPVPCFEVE
Test: Receptor binding assay using rabbit aortae membrane preparation (125I-Sar1Ile8-angiotensin II displacement, "IC50" assay)
Protocol: This assay is also referred to herein as the "IC50 " assay.
Receptor binding assay using rabbit aortae membrane preparation
Three frozen rabbit aortae (obtained from Pel-Freeze Biologicals) were suspended in 5 mM Tris-0.25M Sucrose, pH 7.4 buffer (50 ml) homogenized, and then centifuged. The mixture was filtered through a cheesecloth and the supernatant was centrifuged for 30 minutes at 20,000 rpm at 4° C. The pellet thus obtained was resuspended in 30 ml of 50 mM Tris-5 mM MgCl2 buffer containing 0.2% Bovine Serum Albumin and 0.2 mg/ml Bacitration and the suspension was used for 100 assay tubes. Samples tested for screening were done in duplicate. To the membrane preparation (0.25 ml) there was added ^125 I-Sar^1 Ile^8 -angiotensin II [obtained from New England Nuclear] (10 ul; 20,000 cpm) with or without the test sample and the mixture was incubated at 37° C. for 90 minutes. The mixture was then diluted with ice-cold 50 mM Tris-0.9% NaCl, pH 7.4 (4 ml) and filtered through a glass fiber filter (GF/B Whatman 2.4" diameter). The filter was soaked in scintillation cocktail (10 ml) and counted for radioactivity using Packard 2660 Tricarb liquid scintillation counter. […]

A II antagonist activity by the IC50 assay: exhibit A II antagonist activity
SMILES: Cc1cc(CO)nc2c1nc(C(C)O)n2Cc1ccc(-c2ccccc2-c2nnn[nH]2)cc1 (stereo not shown) [compound (IV)]
